The text below walks through data of PubChem BioAssay (NCI).

Among the test systems are MDA-N; DU-145 prostate; T-47D breast; NCI/ADR-RES ovarian; LXFL 529 NSCLC; DLD-1 colon.
Test in all cases: growth of human tumour cells (NCI), 48 h

“And” between values parts separate entries of the source, which are not always exact repeats. Equal values may be shown once.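 A five-concentration, 48-hour dose response in 96-well plates underlies each endpoint, interpolated linearly between surrounding concentrations. Here, GI50 denotes the concentration required for 50% inhibition of growth. At the TGI there is no net growth.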

Turning to `Cc1cc(=O)[nH]c2c1C(=O)c1c(C)cc(=O)n(C)c1C2=O`, the TGI with MDA-N is 0.0331 µM; with DU-145 prostate, 0.0479 µM; with T-47D breast, 0.848 µM; in the test with NCI/ADR-RES ovarian it was 0.259 µM.
On to `Cn1cc(C2=C(c3cccc([N+](=O)[O-])c3)C(=O)NC2=O)c2ccccc21`, for which the GI50 in the test with DU-145 prostate was 12.7 µM; in the test with T-47D breast, 6.32 µM; in the test on NCI/ADR-RES ovarian it was 5.66 µM. Moreover, the TGI in the test on DU-145 prostate was greater than 25 µM; in the test with T-47D breast, 19.4 µM; in the test with NCI/ADR-RES ovarian it was greater than 23.1 µM.
As for `C=C1CCC2C(C)(CO)C(O)CCC2(C)C1C/C=C1\C(=O)OCC1O` (configuration not stated), the TGI is 55.1 µM in the test with MDA-N, greater than 100 µM in the test on DU-145 prostate, 74.7 µM with T-47D breast and greater than 100 µM with NCI/ADR-RES ovarian.
As to `COc1ccc(N=C2C(=O)Nc3ccc(Br)cc32)cc1`, the TGI in the test with MDA-N was 30.3 µM; in the test on DU-145 prostate it was greater than 100 µM; with T-47D breast, 74.6 µM; in the test on NCI/ADR-RES ovarian, 87.9 µM.
As for `COc1cc(-c2ccc[nH]2)[nH]c1/C=C1\N=C(C)C(C(=O)NC(C)C)=C1C`, the values for the GI50 with DU-145 prostate, in the test on T-47D breast and in the test with NCI/ADR-RES ovarian were 4.7 µM, 3.02 µM and 4.24 µM, respectively. For the same molecule, the TGI in the test on DU-145 prostate worked out at 18.2 µM; in the test with T-47D breast, 10.7 µM; with NCI/ADR-RES ovarian, 16.5 µM.
Turning to `CC(C)(C)c1cnc(CSc2cnc(NC(=O)C3CCNCC3)s2)o1`, the GI50 is 0.184 µM and 0.254 µM with DU-145 prostate; 0.251 µM and 0.225 µM in the test with T-47D breast; 45.5 µM with NCI/ADR-RES ovarian. For the same molecule, the TGI in the test with DU-145 prostate is 5.53 µM and > 10 µM; with T-47D breast it was 0.847 µM and > 4.35 µM; in the test on NCI/ADR-RES ovarian it was greater than 100 µM.
Turning to `COc1ccc(-c2nn(-c3cccc(Cl)c3)cc2-c2c(C#N)c(=O)n3[nH]c(-c4ccc(C)o4)nc3c2C#N)cc1`, the results for the GI50 in the test with DU-145 prostate, in the test on T-47D breast and in the test with NCI/ADR-RES ovarian were 19.1 µM, 2.77 µM and greater than 50 µM, respectively. For the same molecule, the TGI was greater than 50 µM in the test with DU-145 prostate, 33.8 µM with T-47D breast and greater than 50 µM in the test on NCI/ADR-RES ovarian.
On to `CN(Cc1cnc2nc(N)nc(N)c2n1)c1c(Cl)cc(C(=O)NC(CCC(=O)O)C(=O)O)cc1Br` (configuration not stated), for which the results for the GI50 in the test with DU-145 prostate, with T-47D breast and in the test with NCI/ADR-RES ovarian were less than 0.01 µM, 0.261 µM and less than 0.01 µM, respectively. In addition, the TGI in the test with DU-145 prostate, in the test with T-47D breast and with NCI/ADR-RES ovarian was greater than 100 µM throughout.
With `Nc1nc2c([nH]1)c1[nH]c3ccccc3c1c1[nH]c3ccccc3c21`, the GI50 in the test on DU-145 prostate was 13.5 µM; in the test on NCI/ADR-RES ovarian, 18.9 µM. Also, the TGI is 26.4 µM with DU-145 prostate and 45.1 µM in the test on NCI/ADR-RES ovarian.
For `COc1cc2c(cc1OC)C(Sc1ccc(Cl)cc1)c1c(nc(N)c(C#N)c1N)O2` (configuration not stated), in the test on DU-145 prostate, the GI50 is 1.67 µM and the TGI amounted to 3.05 µM. For the same molecule, in the test on T-47D breast, the GI50 is 1.29 µM and the TGI worked out at 3.65 µM.
As to `N#CC(C#N)=C/C=C/c1ccccc1[N+](=O)[O-]`, the TGI was 6.29 µM in the test with MDA-N, greater than 10 µM with DU-145 prostate, greater than 10 µM with T-47D breast and 4.84 µM in the test with NCI/ADR-RES ovarian.
In the case of `COc1cc(OC)c(OC)cc1/C=C\c1ccnc2ccccc12`, the TGI with MDA-N was 0.791 µM; with DU-145 prostate, greater than 100 µM; in the test on T-47D breast, greater than 100 µM; with NCI/ADR-RES ovarian, 12.1 µM; in the test with LXFL 529 NSCLC, greater than 100 µM; with DLD-1 colon it was greater than 100 µM.
In the case of `COc1ccc(-c2nc3sccn3c2/C=C/C(=O)c2cc(OC)c(OC)c(OC)c2)cc1`, the GI50 in the test on DU-145 prostate was 2.86 µM; in the test on T-47D breast, 1.86 µM; in the test on NCI/ADR-RES ovarian, 2.66 µM. In addition, the TGI in the test with DU-145 prostate is 12.9 µM; in the test with T-47D breast, 8.28 µM; with NCI/ADR-RES ovarian it was greater than 28 µM.
With `CN1CCC(C(=O)Nc2n[nH]c3nnc(-c4ccccc4)cc23)CC1`, the GI50 with DU-145 prostate, in the test with T-47D breast and in the test on NCI/ADR-RES ovarian was greater than 25 µM each time. Further, the TGI with DU-145 prostate, with T-47D breast and with NCI/ADR-RES ovarian was greater than 25 µM throughout.
For `COc1cc(C(=O)Nc2ccc(-c3nc4ccccc4[nH]3)cc2)cc(OC)c1OC`, the figures for the GI50 with DU-145 prostate, in the test on T-47D breast and in the test on NCI/ADR-RES ovarian were 11.2 µM, 5.39 µM and 13 µM, respectively. In addition, the TGI in the test with DU-145 prostate came out at 25.3 µM; in the test on T-47D breast, 23.4 µM; with NCI/ADR-RES ovarian, 73.4 µM.
In the case of `c1ccc(-c2nc3ccccc3[nH]2)c(OCCCCCOc2ccccc2-c2nc3ccccc3[nH]2)c1`, the GI50 in the test with DU-145 prostate was 3.82 µM; in the test on T-47D breast, 3.18 µM; in the test on NCI/ADR-RES ovarian it was 5.74 µM. For the same molecule, the TGI in the test on DU-145 prostate was 14.8 µM; with T-47D breast, 18.6 µM; with NCI/ADR-RES ovarian, 33.3 µM.
Turning to `Cc1nc2sc(C(=O)Nc3cccc(Cl)c3)c(N)c2cc1C(O)c1ccccc1` (configuration not stated), the GI50 was 0.923 µM with DU-145 prostate, 0.997 µM in the test with T-47D breast and 0.929 µM in the test with NCI/ADR-RES ovarian. For the same molecule, the figures for the TGI in the test on DU-145 prostate, in the test on T-47D breast and in the test on NCI/ADR-RES ovarian were 17.2 µM, 33 µM and 13.1 µM, respectively.
For `CC(=O)Nc1ccc2c(c1)[nH]c(=O)c1cc(Cl)ccc12`, the TGI with DU-145 prostate, in the test on T-47D breast and in the test on NCI/ADR-RES ovarian was greater than 100 µM throughout.
`CC(C)OC(=O)c1cc(NC(=S)OC(C)C)ccc1Cl`: the TGI in the test on MDA-N is 50 µM; in the test on DU-145 prostate, greater than 62.1 µM; in the test on T-47D breast, greater than 57.6 µM; in the test with NCI/ADR-RES ovarian, greater than 63.4 µM.
For `CCCCCCCC(=O)OC[n+]1cccc(-c2c(COC(=O)NC(C)C)c(COC(=O)NC(C)C)c3n2CCC3)c1` the same measures were greater than 100 µM, greater than 100 µM, greater than 100 µM and greater than 100 µM.
As to `CCOC(=O)C(=O)Nc1nc2ccc(OC)cc2s1`, the TGI with LXFL 529 NSCLC and with DLD-1 colon was greater than 100 µM in each case.
As for `Cc1cn([C@H]2CN(O)C[C@@H](CO)O2)c(=O)[nH]c1=O`, the TGI in the test with MDA-N, in the test on DU-145 prostate and in the test on T-47D breast was greater than 100 µM in each case.
As for `COc1cc(C(=O)/C=C/c2c(C)n([O-])c3ccc(Cl)cc3[n+]2=O)cc(OC)c1OC`, the values for the GI50 in the test with DU-145 prostate, with T-47D breast and in the test on NCI/ADR-RES ovarian were 4.2 µM, 3.18 µM and 4.89 µM, respectively. Moreover, the TGI with DU-145 prostate is greater than 100 µM; in the test with T-47D breast it was 27.9 µM; with NCI/ADR-RES ovarian, 35.8 µM.
